Test results taken from article doi:10.1101/2021.04.29.441652v1 (biorxiv, 2021).

Biological target: human σ2 receptor (TMEM97) (Homo sapiens, UniProt Q5BJF2)
Assay: biochemical
Type: Expi293 membranes
Conditions: read-out: % of control remaining

Chain of human σ2 receptor (TMEM97) (Q5BJF2 whole entry): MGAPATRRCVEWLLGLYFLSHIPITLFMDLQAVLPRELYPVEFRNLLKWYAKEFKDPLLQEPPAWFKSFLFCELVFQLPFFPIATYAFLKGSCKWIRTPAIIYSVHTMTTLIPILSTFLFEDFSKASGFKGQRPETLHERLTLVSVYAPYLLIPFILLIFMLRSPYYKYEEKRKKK

Row | remaining activity at 1 µM | Structure (SMILES)
1 | 95.3% | N#Cc1ccccc1NC(=O)CCN1CCC(O)(c2c(F)cccc2F)CC1 [ZINC000186482223]
2 | 0.9% | C[C@H](Cn1ncc2ccccc2c1=O)N[C@H]1CC[C@H](Cc2ccccc2)C1 [ZINC000188287346]
3 | 52.9% | O=C1Nc2ccccc2CC[C@H]1N1CC[C@@H](COCc2ccccc2)C1 [ZINC000192043753]
4 | 109% | CC(C)(C)N1CCC(NC(=O)c2ncccc2Br)CC1 [ZINC000194878845]
5 | 114% | C[C@@H]1CCCN1CC(=O)NCC(=O)N[C@H](C)c1ccc(F)cc1 [ZINC000245453841]
6 | 72.6% | CCN(C[C@@H]1CCN(Cc2ccccc2)C1)C(=O)[C@H]1CC(=O)N(C2CCCC2)C1 [ZINC000246894550]
7 | 104% | CN1CCC[C@@H]2CN(Cn3ccc(-c4ccc(Br)cc4)n3)CC[C@H]21 [ZINC000247147334]
8 | 87.4% | CN(C[C@@H](O)CCc1ccccc1)[C@H]1CCN(c2ccccc2F)C1=O [ZINC000248559983]
9 | 103% | C[C@H]1CCN(CC#Cc2cccc(Cl)c2)[C@H]1CO [ZINC000248917461]
10 | 83.4% | Cc1ccc(NC(=O)CN2CCC[C@@H](C3OCCO3)C2)cc1Cl [ZINC000263644082]
11 | 102% | COC1CCC(N(C)CC(=O)Nc2ccc3ccccc3c2)CC1 (stereo not shown) [ZINC000265181994]
12 | 97.5% | Cc1cccnc1[C@H](NC(=O)N1CCN(C2CCC2)CC1)C(C)C [ZINC000265281429]
13 | 11.1% | N/C(=N\Cc1cccc2c1OCCCO2)NC1CCCC1 [ZINC000269280100]
14 | 121% | COCC1(O)CCN(C[C@@H](O)Cn2cnc3cc(C)c(C)cc32)CC1 [ZINC000270395954]
15 | 97.6% | CC[C@@]1(C)Oc2ccc(NC(=O)C(=O)NC[C@@H]3CCN(C)C3)cc2O1 [ZINC000276781830]
16 | 105% | COCCOc1ccc(NC(=O)C(=O)N2C[C@H]3CN(C)C[C@H]3C2)cn1 [ZINC000279187431]

Row | remaining activity at 1 µM | Structure (SMILES)
17 | 98.5% | Cc1noc(C)c1CNC(=O)C(=O)N1CCN(C2CCCC2)CC1 [ZINC000283462313]
18 | 115% | CCc1cccc(C)c1NC(=O)CN1C[C@@H](N2CCCC2)C[C@H]1C [ZINC000285725404]
19 | 139% | CNC(=O)CC[C@H]1CCCCN1Cc1cc(-c2ccccc2)on1 [ZINC000286502332]
20 | 75% | COC(=O)c1cccc(S(=O)(=O)N2CC[C@@H](N3CCCC3)[C@@H]2C)c1 [ZINC000286616311]
21 | 132% | CCc1nn(C)c(Cl)c1C(=O)N1CC[C@@H](N2CCNCC2)C1 [ZINC000286782676]
22 | 111% | COC(=O)C[C@H]1CCCN1C[C@@H](O)Cc1cccc(Cl)c1 [ZINC000287581634]
23 | 106% | CS[C@H]1CCN([C@H](C)c2nc(-c3ccccc3C)no2)C1 [ZINC000296435291]
24 | 59.2% | C[C@H](COc1ccc(Cl)c(Cl)c1)N[C@@H](C)Cn1cncn1 [ZINC000296612417]
25 | 105% | CN(CCCN(C)C(=O)C(=O)N(CCO)C1CC1)Cc1ccco1 [ZINC000297448741]
26 | 89% | O=C(CN1CCC(c2nc3cc(Cl)ccc3o2)CC1)N1CCC1 [ZINC000298791523]
27 | 88.5% | c1ccc(SC[C@@H]2CCN(c3cc(N4CCCCC4)ncn3)C2)cc1 [ZINC000301468116]
28 | 111% | C[C@H](C(=O)NCC1CCCCC1)N1CCC[C@H](N2CCCC2=O)CC1 [ZINC000334024070]
29 | 50% | Cc1ccncc1N1CCN(C[C@H](O)CN2C[C@@H](C)O[C@H](C)C2)CC1 [ZINC000340106708]
30 | 103% | Cc1cnc(CN[C@@H](CO)CCC(C)(C)C)n1C [ZINC000341348768]
31 | 108% | COC(=O)[C@@H]1CCN([C@H](C)C(=O)NCc2ccccc2C)[C@@H]1C [ZINC000347007006]
32 | 105% | CN(C/C=C\c1ccc(F)c(F)c1)[C@@H]1COC[C@@H]1O [ZINC000348635286]

The remaining lines, values behind:

Row | Structure (SMILES) | remaining activity at 1 µM
33 | O=C(NCCc1ccc(F)c(Br)c1)[C@H]1C[C@H](F)CN1 [ZINC000188412270] | 106%
34 | COc1ccc2ccccc2c1-c1cc(CN2CCN(C[C@@H](C)O)C[C@H]2C)on1 [ZINC000192810020] | 89%
35 | Cc1ccccc1NC(=O)CN1CCC[C@@H]1C[C@H](C)O [ZINC000228149300] | 113%
36 | N[C@@H](CC(=O)Nc1cccc(C(=O)N2CCCC2)c1)c1ccccc1 [ZINC000237909071] | 89%
37 | CC[C@H](C)CNC[C@H]1CCC[C@H]1NS(C)(=O)=O [ZINC000245533477] | 98.5%
38 | COC(=O)C[C@H]1CCCN1C[C@@H](O)Cc1ccc(C(F)(F)F)cc1 [ZINC000247001079] | 61.2%
39 | O=C1[C@H](N2C[C@@H]3CCC[C@H]3C2)CCN1c1ccccc1Cl [ZINC000247015101] | 73%
40 | O[C@]1(CN[C@@H]2CC[C@@H](Cc3ccccc3)C2)CCSC1 [ZINC000249076038] | 30.5%
41 | C[C@H]1CN/C(=N/Cc2cccc(OCc3ccccc3)c2)N1 [ZINC000261552362] | 56.1%
42 | C=CCOCC(=O)N(CCN)CCc1ccccc1 [ZINC000261774189] | 108%
43 | COc1ccc(Br)cc1C/N=C1/NC[C@@H](C)N1 [ZINC000262658947] | 45.4%
44 | C=C(C)CN/C(N)=N/[C@H]1C[C@H](c2cccc(F)c2)C1 [ZINC000262856881] | 6.4%
45 | CCCN(C)C[C@H]1CCN([C@H](C)C(=O)c2c[nH]c3ncccc23)C1 [ZINC000271284821] | 28.3%
46 | Cc1c(Br)cccc1C(=O)N1CC[C@@H]2CCN(C)C[C@H]21 [ZINC000272592294] | 79.1%
47 | CN1CCC(C)(CNC(=O)Nc2ccc(Br)nc2)CC1 [ZINC000272631760] | 91.2%
48 | COc1ccc(-c2ccccc2)cc1CNCCC1(O)CCOCC1 [ZINC000285662957] | 17.5%
49 | Cc1c(CNC(=O)C(=O)N2CC[C@@H](C3CCN(C)CC3)C2)cnn1C [ZINC000287105318] | 117%
50 | O[C@H]1c2ccccc2C[C@H]1N1Cc2cccc(Cl)c2C1 [ZINC000287374567] | 114%
51 | C[C@@H]1COCC[C@@H]1NCCc1c[nH]c2cccc(Br)c12 [ZINC000289897491] | 51%
52 | CS[C@@H]1CCN(Cc2cnc(C)n2-c2ccccc2)C1 [ZINC000295103757] | 114%
53 | CC(C)CC(=O)N[C@@H](C(=O)N1CCC[C@H](N2CCCC2)C1)c1ccccc1 [ZINC000332414923] | 87.2%
54 | O=C1NCCC[C@@H]1N1CC[C@@H](c2cccc(Cl)c2)C1 [ZINC000336580930] | 60.9%
55 | C[C@H]1CN(CCN(C)C(=O)C(=O)NC2CCN(C)CC2)C[C@H](C)O1 [ZINC000339640280] | 106%
56 | COCCN1CCC(NC(=O)C(=O)N[C@H]2CCOC(C)(C)C2)CC1 [ZINC000343016571] | 118%
57 | C[C@@H]1OCC[C@]1(C)NC(=O)CCc1nc2c(O)nc(=O)n(C)c2[nH]1 [ZINC000345525893] | 90.8%
58 | CC[C@H](NC(=O)C(=O)N(CC)CCCN1CCCC1)[C@@H]1CCCO1 [ZINC000345970626] | 71.7%
